Results as given in patent US12679878B2, “CRF2 receptor agonists and their use in therapy” (SANOFI, priority 2020, dated 2026).
Read-outs that look alike come from different tables or passages of the source. Starred links: 1 amine or outer side, 2 acyl side, 3 side chain; linkers in the order of their positions; H or OH if unused. Non-standard residues stand in square brackets, D forms with d. Residues, ends and D or L forms follow the SMILES beside them. Groups on a side chain read outwards from the residue. *: point of attachment. C18 diacid = O=C(O)CCCCCCCCCCCCCCCCC(=O)*; γGlu = O=C(O)[C@H](CCC(=O)[*:2])N[*:1]; AEEA = NCCOCCOCC(=O)O; Aib = CC(C)(N)C(=O)O

What was measured:
CRF1R receptor = target: T1, CRF1R receptor (Homo sapiens, UniProt P34998); experiment: cAMP activity at anti-target CRF1R, CHO-K1 cell line clone 2 (Example 19.10); format: cell-based; conditions: CRF1R CHO-K1 clone 2; for EC50: 0% HSA, read-out: EC50 [nM] 0% HSA; for Emax: 100% = Sauvagine at 100 nM
T1 construct: host or cells: CHO-K1 clone 2
T1 sequence (P34998 24-415): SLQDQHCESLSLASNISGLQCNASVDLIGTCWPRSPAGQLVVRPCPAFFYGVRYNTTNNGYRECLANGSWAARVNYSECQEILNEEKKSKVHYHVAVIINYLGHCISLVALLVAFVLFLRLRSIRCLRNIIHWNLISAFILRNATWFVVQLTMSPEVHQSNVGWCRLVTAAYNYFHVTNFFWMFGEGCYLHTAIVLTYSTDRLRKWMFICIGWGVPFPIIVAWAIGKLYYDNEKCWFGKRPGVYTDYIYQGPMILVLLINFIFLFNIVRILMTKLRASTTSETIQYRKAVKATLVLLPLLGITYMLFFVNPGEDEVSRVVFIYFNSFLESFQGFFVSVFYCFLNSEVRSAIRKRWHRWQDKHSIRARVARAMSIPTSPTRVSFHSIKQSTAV
In short: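 A CRF1R-overexpressing CHO-K1 line (clone 2) was grown in F12/10% FBS/G418 and frozen in aliquots before use. The cAMP assay followed the preceding procedure, with 100% activation defined by Sauvagine at 100 nM.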

human CRF2α receptor = target: T2, human CRF2α receptor (Homo sapiens, UniProt Q13324); experiment: cAMP agonism at human CRF2 α receptor in TeloHEAC cells (Example 7); format: cell-based; conditions: cAMP HTRF, TeloHEAC cells stably expressing human CRF2 α
T2 construct: expressed in transfected cells; host or cells: TeloHEAC
T2 sequence (Q13324 1-411): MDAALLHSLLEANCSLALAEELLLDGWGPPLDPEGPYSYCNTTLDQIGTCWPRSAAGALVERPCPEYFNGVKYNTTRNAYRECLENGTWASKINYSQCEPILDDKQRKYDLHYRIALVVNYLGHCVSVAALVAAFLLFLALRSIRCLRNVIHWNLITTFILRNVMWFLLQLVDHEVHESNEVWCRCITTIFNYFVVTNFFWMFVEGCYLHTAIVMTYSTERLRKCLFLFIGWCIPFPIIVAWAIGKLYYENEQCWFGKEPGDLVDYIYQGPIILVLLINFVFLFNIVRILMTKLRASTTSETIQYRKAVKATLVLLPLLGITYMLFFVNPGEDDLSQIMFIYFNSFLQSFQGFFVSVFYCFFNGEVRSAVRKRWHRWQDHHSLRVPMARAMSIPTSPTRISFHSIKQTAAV
In short: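 HTRF ratio 665/620 nm, read 1 h after lysis reagents, reports cAMP. Cells: thawed stocks, 2000/well, 30 min RT with compound in HBSS, 20 mM HEPES, 0 or 0.1% HSA, 2 mM IBMX. Activity normalised to UCN2 1000 nM = 100%; EC50 from half-maximal activation.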

[1] = 0% HSA, read-out: EC50 [nM], 0% HSA
[2] = 0.1% HSA, read-out: EC50 [nM], 0.1% HSA

SMILES	EC50 (CRF1R receptor)	Emax (CRF1R receptor)	EC50 (human CRF2α receptor; [1])	EC50 (human CRF2α receptor; [2])
CC[C@H](C)[C@H](N)C(=O)N[C@H](C(=O)N[C@@H](CC(C)C)C(=O)N[C@@H](CO)C(=O)N[C@@H](CC(C)C)C(=O)N[C@@H](CC(=O)O)C(=O)N[C@H](C(=O)N1CCC[C@H]1C(=O)N[C@H](C(=O)N[C@@H](CCCCN)C(=O)N[C@@H](CC(C)C)C(=O)N[C@@H](CCCCNC(=O)COCCOCCNC(=O)COCCOCCNC(=O)CC[C@H](NC(=O)CCCCCCCCCCCCCCCCC(=O)O)C(=O)O)C(=O)N[C@@H](CCC(N)=O)C(=O)N[C@H](C(=O)N[C@@H](CC(C)C)C(=O)N[C@@H](CC(C)C)C(=O)N[C@@H](CCCCN)C(=O)N[C@@H](CCC(N)=O)C(=O)N[C@@H](CCC(=O)O)C(=O)N[C@@H](CCCNC(=N)N)C(=O)N[C@@H](CCC(N)=O)C(=O)N[C@@H](CCCCN)C(=O)NC(C)(C)C(=O)N[C@@H](CCC(N)=O)C(=O)N[C@@H](CCCNC(=N)N)C(=O)N[C@@H](CCC(=O)O)C(=O)N[C@@H](CCCCN)C(=O)N[C@@H](C)C(=O)N[C@@H](CCC(=O)O)C(=O)N[C@@H](CCCCN)C(=O)N[C@@H](CC(N)=O)C(=O)N[C@@H](CCCCN)C(=O)N[C@@H](CCC(N)=O)C(=O)N[C@H](C(=O)N[C@@H](CC(C)C)C(=O)N[C@@H](C)C(=O)N[C@@H](CCC(N)=O)C(=O)N[C@H](C(N)=O)C(C)C)[C@@H](C)CC)[C@@H](C)CC)[C@@H](C)CC)C(C)C)C(C)C [compound 116] (H-IVLSLDVPIKLK([AEEA-AEEA-γGlu-C18 diacid])QILLKQERQK[Aib]QREKAEKNKQILAQV-NH2; N-terminus assumed)	> 100 nM	0.8%	0.7 nM	
CC[C@H](C)[C@H](N)C(=O)N[C@H](C(=O)N[C@@H](CC(C)C)C(=O)N[C@@H](CO)C(=O)N[C@@H](CC(C)C)C(=O)N[C@@H](CC(=O)O)C(=O)N[C@H](C(=O)N1CCC[C@H]1C(=O)N[C@H](C(=O)N[C@@H](CCCCN)C(=O)N[C@@H](CC(C)C)C(=O)N[C@@H](CCCCNC(=O)COCCOCCNC(=O)COCCOCCNC(=O)CC[C@H](NC(=O)CCCCCCCCCCCCCCCCC(=O)O)C(=O)O)C(=O)N[C@@H](CCC(N)=O)C(=O)N[C@H](C(=O)N[C@@H](CC(C)C)C(=O)N[C@@H](CC(C)C)C(=O)N[C@@H](CCCCN)C(=O)N[C@@H](CCC(N)=O)C(=O)N[C@@H](CCC(=O)O)C(=O)N[C@@H](CCCNC(=N)N)C(=O)N[C@@H](CCC(N)=O)C(=O)N[C@@H](CCCCN)C(=O)NC(C)(C)C(=O)N[C@@H](CCC(N)=O)C(=O)N[C@@H](CCCNC(=N)N)C(=O)N[C@@H](CCC(N)=O)C(=O)N[C@@H](CCC(N)=O)C(=O)N[C@@H](C)C(=O)N[C@@H](CCC(=O)O)C(=O)N[C@@H](CCCCN)C(=O)N[C@@H](CC(N)=O)C(=O)N[C@@H](CCCCN)C(=O)N[C@@H](CCC(N)=O)C(=O)N[C@H](C(=O)N[C@@H](CC(C)C)C(=O)N[C@@H](C)C(=O)N[C@@H](CCC(N)=O)C(=O)N[C@H](C(N)=O)C(C)C)[C@@H](C)CC)[C@@H](C)CC)[C@@H](C)CC)C(C)C)C(C)C [compound 117] (H-IVLSLDVPIKLK([AEEA-AEEA-γGlu-C18 diacid])QILLKQERQK[Aib]QRQQAEKNKQILAQV-NH2)	> 100 nM	-6%	0.11 nM	
CC[C@H](C)[C@H](N)C(=O)N[C@H](C(=O)N[C@@H](CC(C)C)C(=O)N[C@@H](CO)C(=O)N[C@@H](CC(C)C)C(=O)N[C@@H](CC(=O)O)C(=O)N[C@@H](C(=O)N1CCC[C@H]1C(=O)N[C@H](C(=O)N[C@@H](CCCCN)C(=O)N[C@@H](CC(C)C)C(=O)N[C@@H](CCCCNC(=O)COCCOCCNC(=O)COCCOCCNC(=O)CC[C@H](NC(=O)CCCCCCCCCCCCCCCCC(=O)O)C(=O)O)C(=O)N[C@@H](CCC(N)=O)C(=O)N[C@H](C(=O)N[C@@H](CC(C)C)C(=O)N[C@@H](CC(C)C)C(=O)N[C@@H](CCCCN)C(=O)N[C@@H](CCC(N)=O)C(=O)N[C@@H](CCC(=O)O)C(=O)N[C@@H](CCCNC(=N)N)C(=O)N[C@@H](CCC(N)=O)C(=O)N[C@@H](CCCCN)C(=O)NC(C)(C)C(=O)N[C@@H](CCC(N)=O)C(=O)N[C@@H](CCCNC(=N)N)C(=O)N[C@@H](CCC(N)=O)C(=O)N[C@@H](CCCCN)C(=O)N[C@@H](C)C(=O)N[C@@H](CCC(=O)O)C(=O)N[C@@H](CCCCN)C(=O)N[C@@H](CC(N)=O)C(=O)N[C@@H](CCCCN)C(=O)N[C@@H](CCC(N)=O)C(=O)N[C@H](C(=O)N[C@@H](CC(C)C)C(=O)N[C@@H](C)C(=O)N[C@@H](CCC(N)=O)C(=O)N[C@H](C(N)=O)C(C)C)[C@@H](C)CC)[C@@H](C)CC)[C@@H](C)CC)C(C)C)C(C)C [compound 118] (H-IVLSLD[dV]PIKLK([AEEA-AEEA-γGlu-C18 diacid])QILLKQERQK[Aib]QRQKAEKNKQILAQV-NH2; N-terminus assumed)	> 100 nM	1.5%	0.04 nM	2.13 nM

Results, then the compound that gave them:

EC50 (CRF1R receptor)	Emax (CRF1R receptor)	EC50 (human CRF2α receptor; [1])	EC50 (human CRF2α receptor; [2])	SMILES
> 100 nM	0.4%	0.13 nM	4.97 nM	CC[C@H](C)[C@H](N)C(=O)N[C@H](C(=O)N[C@@H](CC(C)C)C(=O)N[C@@H](CO)C(=O)N[C@@H](CC(C)C)C(=O)N[C@@H](CC(=O)O)C(=O)N[C@H](C(=O)N1CCC[C@H]1C(=O)N[C@H](C(=O)N[C@@H](CCCCN)C(=O)N[C@@H](CC(C)C)C(=O)N[C@@H](CCCCNC(=O)COCCOCCNC(=O)COCCOCCNC(=O)CC[C@H](NC(=O)CCCCCCCCCCCCCCCCC(=O)O)C(=O)O)C(=O)N[C@@H](CCC(N)=O)C(=O)N[C@H](C(=O)N[C@@H](CC(C)C)C(=O)N[C@@H](CC(C)C)C(=O)N[C@@H](CCCCN)C(=O)N[C@@H](CCC(N)=O)C(=O)N[C@@H](CCC(=O)O)C(=O)N[C@@H](CCCNC(=N)N)C(=O)N[C@@H](CCC(N)=O)C(=O)N[C@@H](CCCCN)C(=O)N[C@@H](CCCCN)C(=O)NC(C)(C)C(=O)N[C@@H](CCCNC(=N)N)C(=O)N[C@@H](CCC(N)=O)C(=O)N[C@@H](CCCCN)C(=O)N[C@@H](C)C(=O)N[C@@H](CCC(=O)O)C(=O)N[C@@H](CCCCN)C(=O)N[C@@H](CC(N)=O)C(=O)N[C@@H](CCCCN)C(=O)N[C@@H](CCC(N)=O)C(=O)N[C@H](C(=O)N[C@@H](CC(C)C)C(=O)N[C@@H](C)C(=O)N[C@@H](CCC(N)=O)C(=O)N[C@H](C(N)=O)C(C)C)[C@@H](C)CC)[C@@H](C)CC)[C@@H](C)CC)C(C)C)C(C)C [compound 119] (H-IVLSLDVPIKLK([AEEA-AEEA-γGlu-C18 diacid])QILLKQERQKK[Aib]RQKAEKNKQILAQV-NH2)
> 100 nM	-1.1%	0.73 nM	41.3 nM	CC[C@H](C)[C@H](N)C(=O)N[C@H](C(=O)N[C@@H](CC(C)C)C(=O)N[C@@H](CO)C(=O)N[C@@H](CC(C)C)C(=O)N[C@@H](CC(=O)O)C(=O)N[C@H](C(=O)N1CCC[C@H]1C(=O)N[C@H](C(=O)N[C@@H](CCCCN)C(=O)N[C@@H](CC(C)C)C(=O)N[C@@H](CCCCNC(=O)COCCOCCNC(=O)COCCOCCNC(=O)CC[C@H](NC(=O)CCCCCCCCCCCCCCCCC(=O)O)C(=O)O)C(=O)N[C@@H](CCC(N)=O)C(=O)N[C@H](C(=O)N[C@@H](CC(C)C)C(=O)N[C@@H](CC(C)C)C(=O)N[C@@H](CCCCN)C(=O)N[C@@H](CCC(N)=O)C(=O)N[C@@H](CCC(=O)O)C(=O)N[C@@H](CCCNC(=N)N)C(=O)N[C@@H](CCC(N)=O)C(=O)N[C@@H](CCCCN)C(=O)N[C@@H](CCCCN)C(=O)N[C@@H](CCC(N)=O)C(=O)N[C@@H](CCCNC(=N)N)C(=O)N[C@@H](CCC(=O)O)C(=O)N[C@@H](CCCCN)C(=O)N[C@@H](C)C(=O)N[C@@H](CCC(=O)O)C(=O)N[C@@H](CCCCN)C(=O)N[C@@H](CC(N)=O)C(=O)N[C@@H](CCCCN)C(=O)N[C@@H](CCC(N)=O)C(=O)N[C@H](C(=O)N[C@@H](CC(C)C)C(=O)N[C@@H](C)C(=O)N[C@@H](CCC(N)=O)C(=O)N[C@H](C(N)=O)C(C)C)[C@@H](C)CC)[C@@H](C)CC)[C@@H](C)CC)C(C)C)C(C)C [compound 121] (H-IVLSLDVPIKLK([AEEA-AEEA-γGlu-C18 diacid])QILLKQERQKKQREKAEKNKQILAQV-NH2)
